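Values below derive from 48-hour exposures of cells grown in 96-well plates, with endpoints linearly interpolated between the two concentrations bracketing the appropriate inhibition level. The concentration for 50% growth inhibition is given as GI50. The concentration for full growth arrest is given as TGI.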
Legend:
Experiment in all cases: growth of human tumour cells (NCI), 48 h
HOP-92 NSCLC = system: HOP-92 NSCLC
SK-MEL-5 melanoma = system: SK-MEL-5 melanoma
OVCAR-8 ovarian = system: OVCAR-8 ovarian
UO-31 renal = system: UO-31 renal
UACC-257 melanoma = system: UACC-257 melanoma
DU-145 prostate = system: DU-145 prostate
UACC-62 melanoma = system: UACC-62 melanoma
HCT-15 colon = system: HCT-15 colon
KM12 colon = system: KM12 colon
SNB-19 CNS = system: SNB-19 CNS

SMILES | GI50 (HOP-92 NSCLC) [nM] | TGI (HOP-92 NSCLC) [µM] | GI50 (SK-MEL-5 melanoma) [µM] | TGI (SK-MEL-5 melanoma) [µM] | GI50 (OVCAR-8 ovarian) [µM] | TGI (OVCAR-8 ovarian) [µM] | GI50 (UO-31 renal) [nM] | TGI (UO-31 renal) [µM] | GI50 (UACC-257 melanoma) [µM] | TGI (UACC-257 melanoma) [µM] | GI50 (DU-145 prostate) [µM] | TGI (DU-145 prostate) [µM] | GI50 (UACC-62 melanoma) [nM] | TGI (UACC-62 melanoma) [µM] | GI50 (HCT-15 colon) [nM] | TGI (HCT-15 colon) [µM] | GI50 (KM12 colon) [nM] | TGI (KM12 colon) [µM] | GI50 (SNB-19 CNS) [µM] | TGI (SNB-19 CNS) [µM]
O=[N+]([O-])c1ccc(NC(c2ccccc2)c2ccc3cccnc3c2O)cc1 (stereo not given) | 234 | > 100 | 0.4 | 3.12 | 0.435 | > 100 | 297 | > 31.4 | 0.548 | 6.67 | 0.483 | > 100 | 510 | > 100 | 326 | > 100 | 449 | > 100 | 0.551 | > 100
Cn1cc(-c2nc(-c3c[nH]c4ccccc34)cs2)c2cccnc21 | 295 | 17.2 | 0.255 | 16.1 | 0.689 | > 100 | 649 | > 100 | 14.2 | > 100 | 0.564 | > 100 | 388 | > 72.9 | 221 | > 100 | 314 | 22.8 | 0.53 | > 100
COc1ccc(CC2OC3(CCCCC3)CC3CCCCN32)cc1 (stereo not given) | – | > 100 | – | > 100 | – | > 100 | – | > 100 | – | > 100 | – | > 100 | – | > 100 | – | > 100 | – | > 100 | – | > 100
CC(C)Cc1cc(-c2cccn2C)c(C#N)c(=O)[nH]1 | > 100000 | > 100 | > 100 | > 100 | > 100 | > 100 | > 100000 | > 100 | > 100 | > 100 | > 100 | > 100 | > 100000 | > 100 | > 100000 | > 100 | > 100000 | > 100 | > 100 | > 100
COc1ccc(/C=C2\CCC(C)(CN(C)C)C2=O)cc1Br (stereo not given) | – | > 85.8 | – | 28.3 | – | 32.9 | – | 33.3 | – | 36.6 | – | > 100 | – | 20 | – | 32.2 | – | 28.3 | – | 47.8
c1ccc2c(c1)CCCc1nnc3nc4ccccc4n3c1-2 | 9530 | > 100 | 4.89 | > 100 | 5.02 | 74.1 | 3080 | 30.5 | 5.27 | > 100 | 4.91 | > 100 | 6540 | > 100 | 3270 | > 100 | 5370 | 27.6 | 7.5 | > 100
Cc1c(-c2c(F)cc(C(N)=O)c3[nH]c4c(c23)CC[C@H](C(C)(C)O)C4)cccc1-n1c(=O)c2cccc(F)c2n(C)c1=O | 1010 | 6.94 | 3.83 | 16.2 | 4.16 | > 100 | 1010 | 5.59 | 2.9 | > 100 | 5.63 | > 100 | 3000 | > 100 | 2700 | > 100 | 399 | > 100 | 7.22 | > 100
N/C(=N/O)NOCCC(N)C(=O)O (stereo not given) | > 100000 | > 100 | > 100 | > 100 | > 100 | > 100 | > 100000 | > 100 | > 100 | > 100 | > 100 | > 100 | > 100000 | > 100 | > 100000 | > 100 | > 100000 | > 100 | > 100 | > 100
COc1ccc2c(c1)C(=O)CC(C(N)=O)C2 (stereo not given) | – | > 100 | – | > 100 | – | > 100 | – | > 100 | – | > 100 | – | > 100 | – | > 100 | – | > 100 | – | > 100 | – | > 100
COc1cc(-c2cc(-c3ccc(Nc4nc(Nc5ccc(Cl)cc5)nc(Nc5ccc(Cl)cc5)n4)cc3)no2)cc(OC)c1OC | 16.6 | 0.32 | 4.47 | 58.1 | 36 | > 100 | 6000 | > 100 | 23.5 | > 100 | 7.08 | > 100 | 71700 | > 100 | 18900 | > 100 | 14200 | > 100 | 26.8 | > 100
O=C1NC(=O)/C(=C/c2ccc3nccc(-c4ccncc4)c3c2)S1 | 80.6 | 0.494 | 0.419 | 1.63 | 0.517 | > 10 | 140 | 1.05 | 0.528 | 5.22 | 0.431 | > 5.79 | 187 | 1.3 | 292 | > 5.08 | 817 | > 10 | 0.429 | 5.93

From PubChem BioAssay (NCI)
